From patent US9005677B2, “Autophagy enhancer for treatment of neurodegenerative diseases” (Macau University of Science and Technology, priority 2013, dated 2015)

What was measured:
PC-12 cells = assay: Cell viability by crystal violet staining; format: cell-based, rat; details: 24 hours
Method: Cell culture and cytotoxicity assay: The test compound of Onjisaponin B was dissolved in DMSO at a final concentration of 100 mmol/L and stored at −20° C. Cytotoxicity was assessed using the 3-(4,5-dimethylthiazol-2-yl) -2,5-diphenyltetrazolium bromide assay as described previously. PC-12, 4000 cells were seeded on 96-well plates per well. After overnight pre-incubation, the cells were exposed to different concentrations of Onjisaponin B (0.039-100 μmol/L) for 2 days. Subsequently, 10 μL of MTT reagents was added to each well and incubated at 37° C. for 4 hours followed by the addition of 100 μL solubilization buffer (10% SDS in 0.01 mol/L HCl) and overnight incubation. Absorbance at 585 nm was determined from each well the next day. For cell viability assay measured by crystal violet staining, PC-12 cells were incubated in 35 mm disc followed by the addition of Onjisaponin B at the indicated concentrations for 24 hours. The cells were then incubated with crystal violet for 10 minutes followed by a ddH2O wash. […] Cell viability was quantified by dissolving the stained cells in 10% acetic acid (200 μL/well). The colorimetric reading of the solute mixture was then determined by spectrophotometer at OD 560 nm The percentage of cell viability was calculated using the following formula: Cell viability (%)=Cells number treated/Cells number DMSO control×100. […]

[1] = tested on: GFP-LC3 puncta formation in PC12 cells; assay: Quantification of autophagy GFP-LC3 puncta; format: cell-based, rat; details: fluorescent microscopy
Method: (§1) Quantification of autophagy GFP-LC3 Puncta. GFP-LC3 puncta formation was quantified as described previously. In brief, cells grown on coverslips in a 6-well plate were fixed in 4% paraformaldehyde for 20 minutes at room temperature and then rinsed with PBS. Slides were mounted with FluorSave™ mounting media (Calbiochem, San Diego, Calif.) and examined by fluorescence microscopy. The number of GFP-positive cells with GFP-LC3 puncta formation was examined under the Nikon ECLIPSE 80i microscope. Representative images were captured with CCD digital camera Spot RT3™ (Diagnostic Instruments, Inc., Melville, N.Y.). To quantify autophagy, the percentage of cells with punctate GFP-LC3 fluorescence was calculated by counting the number of the cells with punctate GFP-LC3 fluorescence in GFP-positive cells. A minimum of 150 cells from 3 randomly selected fields was scored.

[2] = tested on: LC3-II conversion in PC12 cells; assay: Western blot of autophagic marker protein LC3 conversion; format: cell-based
Method: Detection of autophagic marker protein LC3 conversion. After drug treatments with or without autophagy inhibitor ([…] E64D and pepstain A), cells were harvested and lysed in RIPA buffer (Cell Signaling Technologies Inc., Beverly, Mass.). The cell lysates were then resolved by SDS-PAGE. After electrophoresis, the proteins from SDS-PAGE were transferred to nitrocellulose membrane which was then blocked with 5% non-fat dried milk for 60 minutes. The membrane was then incubated with LC3 primary antibodies (1:1000) in TBST overnight at 4° C. After that, the membrane was further incubated with HRP-conjugated secondary antibodies for 60 minutes. Finally, protein bands were visualized by using the ECL Western Blotting Detection Reagents (Invitrogen, Paisley, Scotland, UK).

[3] = tested on: Doxycycline-inducible PC-12 cell lines transfected with mutant A53T α-synuclein; assay: Cell death by flow cytometry (Annexin V / propidium iodide) in PC-12 cells expressing mutant A53T α-synuclein; format: cell-based, rat; details: 50 μM, 24 h after doxycycline removal
Method: Flow cytometry analysis: Doxycycline-inducible PC-12 cell lines transfected with mutant A53T α-synuclein were induced with doxycycline (1 μg/mL) for 24 h and the expression of transgene was then switched off by the removal of doxycycline. Cells were then treated with Onjisaponin B (50 μM) for a further 24 h after doxycycline removal. The control group (Ctrl) contained cells without the addition of doxycycline, while the Dox group contained cells with the removal of doxycycline (1 μg/mL) after 24 h of induction but without treatment of Onjisaponin B. Cell death was then assessed by flow cytometry using Annexin V staining kit and Propidium iodide staining. Data from the bar chart represented the means±S.D. of three independent experiments. **p<0.01; *p<0.05. Flow cytometry was carried out using a FACSCalibur flow cytometer. Data acquisition and analysis were performed with CellQuest.

[4] = tested on: Atg7-knockout mouse embryonic fibroblasts; assay: GFP-LC3 puncta in Atg7 deficient MEFs; format: cell-based
Method: as §1, with “autophagy GFP-LC3 Puncta in Atg7 wild type and deficient MEFs. GFP-LC3 puncta” for “autophagy GFP-LC3 Puncta. GFP-LC3 puncta”, “In brief, both Atg7 wild-type and deficient mouse embryonic fibroblasts (MEFs) grown on” for “In brief, cells grown on”, “plate were treated with indicated concentrations of Onjisaponin B. The cells were then fixed in” for “plate were fixed in”, “To quantify for autophagy, the” for “To quantify autophagy, the”

[5] = tested on: EGFP-HDQ74 transfected Atg7 wild-type mouse embryonic fibroblasts; assay: Mutant huntingtin aggregates and LC3 conversion in Atg7 wild-type MEFs; format: cell-based
Method: Quantification of mutant huntingtin aggregates in PC12, Atg7 wild type and deficient MEFs. In brief, both EGFP-HDQ74 transfected PC12, Atg7 wild-type and deficient mouse embryonic fibroblasts (MEFs) grown on coverslips in a 6-well plate were treated with indicated concentrations of Onjisaponin B. The cells were then fixed in 4% paraformaldehyde for 20 minutes at room temperature and then rinsed with PBS. Slides were mounted with FluorSave™ mounting media (Calbiochem, San Diego, Calif.) and examined by fluorescence microscopy. The number of cells with GFP-aggregates formation was examined under the Nikon ECLIPSE 80i microscope. Representative images were captured with CCD digital camera Spot RT3™ (Diagnostic Instruments, Inc., Melville, N.Y.). To quantify the clearance of mutant huntingtin, the percentage of cells with GFP-aggregates was calculated by counting the number of the cells with punctate GFP-LC3 fluorescence in GFP-positive cells. A minimum of 150 cells from 3 randomly selected fields was scored.
Detection of autophagic marker protein LC3 conversion and HTT 74 mutant aggregates. After drug treatments for Atg7 wild type and deficient MEFs, cells were harvested and lysed in RIPA buffer (Cell Signaling Technologies Inc., Beverly, Mass.). The cell lysates were then resolved by SDS-PAGE. […]

COc1ccc(/C=C/C(=O)O[C@@H]2[C@H](O[C@@H]3O[C@@H](C)[C@H](O)[C@@H](O)[C@H]3O)[C@@H](O[C@@H]3O[C@@H](C)[C@H](O[C@@H]4OC[C@@H](O[C@@H]5O[C@H](CO)[C@H](O)[C@H](O)[C@H]5O)[C@H](O)[C@H]4O)[C@@H](O)[C@H]3O)[C@H](OC(=O)[C@]34CCC(C)(C)C[C@H]3C3=CC[C@@H]5[C@@]6(C)C[C@H](O)[C@H](O[C@@H]7O[C@H](CO)[C@@H](O)[C@H](O)[C@H]7O)[C@@](C)(C(=O)O)[C@@H]6CC[C@@]5(C)[C@]3(CO)CC4)O[C@@H]2C)cc1 [Onjisaponin B]
Morphological damage in PC12 cells (crystal violet assay) (PC-12 cells): no significant morphological damage
GFP-LC3 puncta formation [1]: increased the formation of GFP-LC3 puncta formation in a dose dependent manner
LC3-II conversion (western blot) [2]: increase of LC3-II conversion
Rate of LC3-II formation in the presence of protease inhibitors (autophagic flux) ([2]; with 10 µg/mL E64D and pepstain A): increased the rate of LC3-II formation
Toxicity in PC-12 cells expressing mutant A53T α-synuclein (cell death, flow cytometry) [3]: reduced toxicity
GFP-LC3 puncta formation in Atg7-knockout cells [4]: not in Atg7-knockout mouse embryonic fibroblasts
Clearance of EGFP-HDQ74 inclusions in autophagy-wild type cells [5]: enhanced the clearance of EGFP-HDQ74 inclusions
LC3II formation in wild type Atg7 cells transfected with EGFP-HDQ74 ([5]; western blot): LC3II formation in wild type Atg7 cells
